{"source": "patent US8975280B2", "about": "“Deoxynojirimycin and D-arabinitol analogs and methods of using” (The Chancellor, Masters and Scholars of The University of …, priority 2006, dated 2015)", "biological_target": "T1, glucosidase II (Homo sapiens, UniProt Q14697)", "T1 construct": "endogenous in cells; host or cells: HL60 cells", "T1 sequence (Q14697 29-944)": "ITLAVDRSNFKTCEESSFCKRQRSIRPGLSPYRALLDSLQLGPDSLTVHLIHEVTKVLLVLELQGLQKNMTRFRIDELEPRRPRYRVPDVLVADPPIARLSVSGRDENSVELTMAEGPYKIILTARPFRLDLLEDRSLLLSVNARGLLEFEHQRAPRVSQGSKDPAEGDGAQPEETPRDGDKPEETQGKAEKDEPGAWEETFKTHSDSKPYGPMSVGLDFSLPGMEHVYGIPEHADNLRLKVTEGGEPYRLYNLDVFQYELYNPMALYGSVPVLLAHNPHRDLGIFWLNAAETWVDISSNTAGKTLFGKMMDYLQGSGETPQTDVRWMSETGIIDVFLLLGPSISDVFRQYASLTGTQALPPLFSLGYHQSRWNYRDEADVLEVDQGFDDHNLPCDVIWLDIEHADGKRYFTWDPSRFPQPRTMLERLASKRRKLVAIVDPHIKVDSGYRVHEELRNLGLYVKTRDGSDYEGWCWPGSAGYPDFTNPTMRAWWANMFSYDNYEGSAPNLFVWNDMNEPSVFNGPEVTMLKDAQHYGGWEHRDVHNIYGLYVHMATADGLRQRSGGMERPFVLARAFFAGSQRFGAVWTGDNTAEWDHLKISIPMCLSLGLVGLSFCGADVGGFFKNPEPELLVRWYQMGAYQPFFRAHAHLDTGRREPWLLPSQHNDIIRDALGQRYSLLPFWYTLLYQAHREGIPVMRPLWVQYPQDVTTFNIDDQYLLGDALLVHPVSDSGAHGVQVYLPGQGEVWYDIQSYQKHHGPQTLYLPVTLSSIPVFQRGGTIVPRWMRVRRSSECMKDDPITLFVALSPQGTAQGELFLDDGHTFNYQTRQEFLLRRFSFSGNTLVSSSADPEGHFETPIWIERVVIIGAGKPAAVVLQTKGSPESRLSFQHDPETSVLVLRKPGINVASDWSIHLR", "T1 sequence (P14314 15-528 partner)": "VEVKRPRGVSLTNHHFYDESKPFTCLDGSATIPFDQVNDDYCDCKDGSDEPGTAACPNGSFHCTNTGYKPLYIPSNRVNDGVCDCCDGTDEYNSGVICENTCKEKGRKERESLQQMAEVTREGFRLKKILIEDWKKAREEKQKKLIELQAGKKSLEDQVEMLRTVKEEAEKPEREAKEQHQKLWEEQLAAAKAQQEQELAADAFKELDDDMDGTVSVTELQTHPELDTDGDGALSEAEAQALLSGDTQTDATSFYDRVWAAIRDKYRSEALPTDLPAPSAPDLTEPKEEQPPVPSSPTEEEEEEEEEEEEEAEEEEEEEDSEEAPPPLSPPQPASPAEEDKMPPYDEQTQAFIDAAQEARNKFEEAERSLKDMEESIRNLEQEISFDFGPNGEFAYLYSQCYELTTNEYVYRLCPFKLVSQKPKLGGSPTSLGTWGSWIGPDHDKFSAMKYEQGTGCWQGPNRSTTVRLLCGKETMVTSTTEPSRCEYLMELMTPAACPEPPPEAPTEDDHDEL", "test": "Inhibition of glucosidase II in HL60 cells, free oligosaccharide (G1M5N) analysis by NP-HPLC", "format": "cell-based", "conditions": "24 h", "protocol": "The effect of an ER-glucosidase inhibitor on cells was evaluated using an assay method by modifying known methods. (H. R. Mellor et al., Cellular Effects of Deoxynojirimycin Analogues: Inhibition of N-Linked Oligosaccharide Processing and Generation of Free Glucosylated Oligosaccharides, 381 Biochem. J. 867-875 (2004). The detection of free oligosaccharides following imino sugar treatment to generate misfolded protein that is degraded in the cytosol is an accurate measure of cell ER entry and inhibition of glycoprotein processing of α-glucosidases I and II by imino sugars.\nCells were cultured to high density (×10^7 cells/ml) prior to growth in fresh medium containing NB-DNJ at varying concentrations. The cells were seeded at a lower density so as to achieve a high density at the end of the incubation period. […] The conditions for extraction of FOS were determined to maximize recovery of FOS. […]\nConA-Sepharose purified 2-AA-labeled oligosaccharides were separated by NP-HPLC using a 4.6×250 mm TSKgel Amide-80 column (Anachem, Luton, UK) with slight modifications to known methods. (D. C. Neville, et al.) The chromatography system consisted of a Waters Alliance 2695 separations module and an in-line Waters 474 fluorescence detector set at an excitation wavelength of 360 nm and emission wavelength of 425 nm. […]"}
{"smiles": "[N-]=[N+]=Nc1ccc(NCCCCCCN2C[C@H](O)[C@@H](O)[C@H](O)[C@H]2CO)c([N+](=O)[O-])c1", "note": "[NAP-DNJ, N—(N′-{4′azido-2′-nitrophenyl)-6-aminohexyl)-deoxynojirimycin]", "values": [{"measurement": "concentration at which glucosidase II is inhibited in cells", "result": "1 to 10", "unit": "µM"}]}
